# Assay results reported in US10526580B2, “Differentiated cell population of endothelial cells derived from human pluripotent stem cells, composition, system, kit and uses thereof” (BIOCANT-ASSOCIAÇÃO DE TRANSFERÊNCIA DE TECNOLOGIA, priority 2012, dated 2020).
# How the values were obtained:
# Format in all cases: cell-based, human
# hESC-derived ECs = assay: 7-Cyclo in PDMS microfluidic system, static or flow (morphology, qRT-PCR, ELISA)
# Procedure: For the 7-cyclo studies the flow experiments were carried out in a microfluidic system developed by us. The microfluidic device was obtained using a cylindrical mold of 20 Gauge. Polydimethylsiloxane (PDMS) (Sylgard 184 Silicone elastomere base) was mixed at a 10:1 ratio (w/w) with curing agent (Sylgard 184 Silicon Elastomer Curing Agent) and the solution was poured onto a mold (20 gauge needle laid on a plastic dish) and cured at 80° C. for about 3 h. The microchannel was cut to 0.5 cm length (900 μm inner diameter) and treated with Plasma Clean (Electronic Diener Femto Plasma Surface Technology version 5) for 2 min with argon gas (2 mBar) before immersing it in a solution of 0.1% gelatin. HESC-derived ECs (20×10^6 cells/mL) or HUAECs were seeded on PDMS microchannels (3.18 μL cell suspension per channel) devices and grown until confluence. Using a programmed IBIDI pump with positive pressure, the cell monolayer was perfused with EGM-2 medium for 7 days; shear stress of 20 dyne/cm2 (. After 7 days the flow was stopped, the cells imaged, and then stained or collected for posterior gene analysis. Medium was collected for ELISA assays. In some experiments, cells were cultured in medium supplemented with 1 μM 7-cyclo (Sigma) for an additional time of 24 h, under shear stress. Static controls were carried out in the microfluidic system but without flow.
# Evaluation of the levels of vascular injury by specific markers. ELISA kits analyzed supernatants collected from the shear stress experiments for vWF and vWFpp (Gen-Probe GTI Diagnostic) and ADMA (Enzo Life Sciences), according to manufacturer's recommendations.
# To evaluate the effects of 7-Cyclo in flow conditions, hESC-derived ECs were cultured in a poly(dimethylsiloxane) (PDMS) microfluidic system with cylindrical channels for 7 days at 20 dyne/cm2 (FIG. 5A). ECs were able to form a confluent monolayer in the entire inner surface of the channel after 48 h. At day 7, cells were exposed to EGM-2 medium supplemented with 1 μM of 7-Cyclo for 24 h, and finally analyzed at morphological, genetic and secretion levels. […] Importantly, hESC-derived ECs cultured under flow conditions in the presence of 7-Cyclo secrete higher levels of ADMA (2.5 fold) and vWFpp:vWF (1.6 fold) than without the drug, and significant higher levels of ADMA than HUAECs.
# [1] = tested on: hESC-derived ECs versus ACL cells; assay: High-throughput screening of LOPAC library, PrestoBlue cell viability, hESC-derived ECs versus ACL cells; details: LOPAC screen, 4.5 μM, 4 days of incubation, PrestoBlue assay
# How it was run: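 HUAECs and hESC-derived ECs in EGM-2 and ACL cells in DMEM/10% FBS were grown to near confluence, then exposed for 4 days to single-dose compound at 4.5 μM (0.25% DMSO). Viability was read by PrestoBlue (10%, 3 h, 37 °C) as absorbance at 560-590 nm. Hits were retested at eight concentrations for dose-response.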
# [2] = tested on: kinase activity of hESC-derived ECs; assay: Kinase-Glo Luminescence Kinase Assay of cells; details: 24 h incubation, 0.1 or 1 μM
# Procedure: (§1) The kinase activity of the hESC-derived ECs and HUAECs was assessed by luminescence (signal is inversely correlated with the level of kinase activity) in the absence or presence of the compound 7-Cyclo (FIG. 6D).
# (§2) The kinase activity of cells was measured by a Kinase-Glo® Luminescence Kinase Assay (Promega). Cells incubated with 7-Cyclo for 24 h were treated with the kinase reagent from the kit and luminescence acquired using a Spectra Max Gemini luminometer. The luminescence signal is correlated with the amount of ATP present and its inversely correlated with the amount of kinase activity.
# [3] = tested on: kinase activity of HUAECs; assay: Kinase-Glo Luminescence Kinase Assay of cells; details: 24 h incubation, 0.1 or 1 μM
# Procedure: as §1, §2
# [4] = tested on: microvessels formed by HUAECs; assay: Matrigel assay, disruption of vascular networks; details: 1 μM, 20 h, on top of Matrigel
# Procedure: (§3) To test the 7-Cyclo properties in the disruption of vascular networks, microvessels of hESC-derived ECs, HUAECs and HAECs were formed on top of Matrigel and then exposed to the drug for 20 h.
# (§4) A 24-well plate was coated with Matrigel (0.4 mL, BD Biosciences) per well and incubated at 37° C. for 30 min. Cells were seeded on top of the polymerized Matrigel at a concentration of 1×10^5 cells per 300 μL of EGM-2 medium. After 1 h of incubation at 37° C., an extra 1 mL of EGM-2 was added. After 12 h, medium supplemented with 7-Cyclo (0, 0.1 or 1 μM) was added. Cord formation was evaluated by phase contrast microscopy (Carl Zeiss International, Germany), at time 0, 3 h and 20 h after 7-Cyclo addition.
# [5] = tested on: microvessels formed by HAECs; assay: Matrigel assay, disruption of vascular networks; details: 1 μM, 20 h, on top of Matrigel
# Procedure: as §3, §4
# [6] = tested on: microvessels of hESC-derived ECs; assay: Matrigel assay, disruption of vascular networks; details: 1 μM, 20 h, on top of Matrigel
# Procedure: as §3, §4
# [7] = flow 20 dyne/cm2, 1 μM for 24 h, versus static conditions
# [8] = flow conditions, 1 μM for 24 h, ELISA
structure (smiles),measurement,setting,value
"Nc1ncnc2c1c(-c1ccc(Oc3ccccc3)cc1)cn2C1CCCC1 [7-Cyclo, 7-cyclopentyl-5-(4-phenoxy)phenyl-7H-pyrrolo[2,3-d]pyrimidin-4-ylamine]",cell morphology,"hESC-derived ECs; flow 20 dyne/cm2, 1 μM for 24 h",significant alterations
same,expression of DDAH1 and DDAH2,hESC-derived ECs; [7],statistically lower levels
same,"expression of inflammatory genes ICAM-1, E-selectin, HO-1 and eNOS",hESC-derived ECs; [7],statistically higher levels
same,secreted ADMA versus without the drug,hESC-derived ECs; [8],2.5 fold
same,secreted vWFpp:vWF versus without the drug,hESC-derived ECs; [8],1.6 fold
same,Differences (%) in cell viability (hESC-Derived ECs versus ACL cells),[1],65.4%
same,kinase activity versus time zero (luminescence),[2],decreased significantly
same,kinase activity versus time zero (luminescence),[3],no significant decrease
same,effect on network length and number of sprouts in microvessels,[4],negligible effect
same,effect on network length and number of sprouts in microvessels,[5],negligible effect
same,network length and number of sprouts in microvessels,[6],statistically significant reduction
